The record followed here is BindingDB's records for doi:10.1016/j.bmcl.2003.12.105 (Ucb Pharma, 2004).

Assay [1] can be described thus: Inhibition of [3H](+)-pentazocine binding to Sigma receptor type 1.
Test in assay [2]: as above
The source holds these as a separate data set.

`COc1ccc2c(c1)[C@]1(CC[N+](C)(C)C(=O)OC(C)(C)C)CCCC[C@@H]1C=C2` [N-{2-[(4aS,10aR)-6-methoxy-1,2,3,4,4a,10a-hexahydrophenanthren-4a-yl]ethyl}-1-(tert-butoxy)-N,N-dimethylcarbonyl{2-[(4aS,10aR)-6-methoxy-1,2,3,4,4a,10a-hexahydrophenanthren-4a-yl]ethyl}dimethylazanium]: the Ki – broadly, the equilibrium dissociation constant of an inhibitor or competing ligand from its target – in assay [1] was greater than 3300 nM.
The compound `C=CCN(C)CC[C@@]12CCCC[C@@H]1C=Cc1ccc(OC)cc12` [Allyl-[2-((4aS,10aR)-6-methoxy-1,3,4,10a-tetrahydro-2H-phenanthren-4a-yl)-ethyl]-methyl-amine; compound with GENERIC INORGANIC NEUTRAL COMPONENT] gave a Ki in assay [1] of 49 nM.
Still for that read-out and setting: as for `COc1ccc2c(c1)[C@]13CCCC[C@@H]1[C@H](C2)N(C)CC3` [DEXTROMETHORPHAN], the figure is 348 nM.
Regarding `COc1ccc2c(c1)[C@]1(CCN(C)CC(=O)OC(C)(C)C)CCCC[C@@H]1C=C2` [{[2-((4aS,10aR)-6-Methoxy-1,3,4,10a-tetrahydro-2H-phenanthren-4a-yl)-ethyl]-methyl-amino}-acetic acid tert-butyl ester; compound with GENERIC INORGANIC NEUTRAL COMPONENT], the Ki was 37 nM in assay [1] and 373 nM in assay [2].
In assay [1], `COCCN(C)CC[C@@]12CCCC[C@@H]1C=Cc1ccc(OC)cc12` [(2-Methoxy-ethyl)-[2-((4aS,10aR)-6-methoxy-1,3,4,10a-tetrahydro-2H-phenanthren-4a-yl)-ethyl]-methyl-amine; compound with GENERIC INORGANIC NEUTRAL COMPONENT] yielded a Ki of 49 nM.
Regarding `COc1ccc2c(c1)[C@]1(CCN(C)C)CCCC[C@@H]1C=C2` [[2-((4aS,10aR)-6-Methoxy-1,3,4,10a-tetrahydro-2H-phenanthren-4a-yl)-ethyl]-dimethyl-amine; compound with GENERIC INORGANIC NEUTRAL COMPONENT], the Ki in assay [1] is 245 nM. This Ki lies about 5-fold higher than the previous one.
On to `CN(CC[C@@]12CCCC[C@@H]1C=Cc1ccc(OCC(=O)OC(C)(C)C)cc12)CC(=O)OC(C)(C)C` [{(4bS,8aR)-4b-[2-(tert-Butoxycarbonylmethyl-methyl-amino)-ethyl]-4b,5,6,7,8,8a-hexahydro-phenanthren-3-yloxy}-acetic acid tert-butyl ester], for which the Ki in assay [1] was 14 nM.
Consider `CCOC(=O)N(C)CC[C@@]12CCCC[C@@H]1C=Cc1ccc(OC)cc12` [[2-((4aS,10aR)-6-Methoxy-1,3,4,10a-tetrahydro-2H-phenanthren-4a-yl)-ethyl]-methyl-carbamic acid ethyl ester], for which, in assay [1], the Ki was greater than 3300 nM.
Regarding `COc1ccc2c(c1)[C@]1(CCN(C)CCOCc3ccccc3)CCCC[C@@H]1C=C2` [(2-Benzyloxy-ethyl)-[2-((4aS,10aR)-6-methoxy-1,3,4,10a-tetrahydro-2H-phenanthren-4a-yl)-ethyl]-methyl-amine; compound with GENERIC INORGANIC NEUTRAL COMPONENT], the Ki in assay [1] was found to be 241 nM. That is a sub-micromolar value.
For the compound `COc1ccc2c(c1)[C@]1(CCN(C)CCO)CCCC[C@@H]1C=C2` [2-{[2-((4aS,10aR)-6-Methoxy-1,3,4,10a-tetrahydro-2H-phenanthren-4a-yl)-ethyl]-methyl-amino}-ethanol], the Ki in assay [1] worked out at 161 nM.
In turn, `CNCC[C@@]12CCCC[C@@H]1C=Cc1ccc(OC)cc12` [[2-((4aS,10aR)-6-Methoxy-1,3,4,10a-tetrahydro-2H-phenanthren-4a-yl)-ethyl]-methyl-amine] gave a Ki in assay [1] of 456 nM.
For the compound `CN(CC[C@]12CCCC[C@H]1C=Cc1ccc(OCC(=O)OC(C)(C)C)cc12)CC(=O)OC(C)(C)C` [{(4bR,8aS)-4b-[2-(tert-Butoxycarbonylmethyl-methyl-amino)-ethyl]-4b,5,6,7,8,8a-hexahydro-phenanthren-3-yloxy}-acetic acid tert-butyl ester], in assay [1], the affinity, expressed as Ki, was 115 nM.
